Activity calls are given as the source filed them.
Assays:
Escherichia coli [1] = test: Effect on photodynamic inactivation in Escherichia coli pUC19 DNA assessed as photo-mediated DNA cleavage at 10 to 100 uM by ethidium bromide gel-electrophoresis analysis
Escherichia coli [2] = test: Effect on Copper-mediated Escherichia coli pBR322 DNA cleavage at 100 uM by gel-electrophoresis analysis
Escherichia coli [3] = test: Effect on Copper-mediated Escherichia coli pUC19 DNA cleavage at 100 uM by gel-electrophoresis analysis

Measured: Activity

Cc1cc(O)c2c(c1)C1OC(=O)[C@H](Cc3ccc(NC(=O)COc4ccc5ccccc5c4)cc3)N1C1=C2C(=O)c2cccc(O[C@H]3C[C@@H](O)[C@@H](O)[C@H](C)O3)c2C1=O (stereo partly drawn)
inactive: all assays above

— ChEMBL document CHEMBL3585335, “Isolation and Synthetic Diversification of Jadomycin 4-Amino-l-phenylalanine” (J Nat Prod, 2015)
